Consider one compound from US10246498B2, “Genetically encoded histone reporter allele constructs” (THE JOHNS HOPKINS UNIVERSITY, priority 2014, dated 2019).

The test system of data set [1] is H3K4 trimethylation activity in MEFs. Briefly: H3K4me3 indicator in murine embryonic fibroblasts from Kmt2d+/βGeo and Kmt2d+/+ mice. The class given is cell-based, mouse. The text has this:
(§1) An H3K4 trimethylation reporter was also created (FIG. 5B). This reporter is based on the H3 tail on one end and the TBP associated factor III (TAFIII) […] on the other end; the TAFIII […] only identifies and binds to trimethylated K4 on H3. When the H3K4 site gets trimethylated, the TAFIII […] can bind to the modified H3 tail and bring the two parts of the separated GFP in close proximity. The activity of the epigenetic modification system can be quantified through fluorescence.
Epigenetic reporter alleles were synthesized (OriGene, Rockville, Md.) using published sequences for component elements (Baird et al. (1999) Proc. Natl. Acad. Sci. 96:11241-6; Souslova et al. (2007) BMC Biotechnol. 7:37). Single nucleotide mutations were created using the QuickChange Lightening kit (Agilent Technologies Inc, Santa Clara, Calif.). For H4ac indicator, K5R, K8R, K12R, K16R and K20R (MUT indicator) were introduced. For H3K4me3 indicator, K4Q and D890A/W891A and M882A (three separate constructs) were introduced. For transient transfections, mouse embryonic fibroblasts (see below) were transfected with Fugene HD (Promega, Madison, Wis.), 48 hours prior to FACS. […] For drug stimulation, drug was added to the media 24 hours prior to FACS. For stable transfections in T293 (American Type Culture Collection) cells, 10 μg/ml of Blastocidin (Life Technologies, Carlsbad, Calif.) was added to the media for several weeks. For stable transfection in MEFs, the reporter was transferred to a ViraPower Lentiviral Expression System (Life Technologies, Carlsbad, Calif.). After selection with Blastocidin, the drug of interest was added 24 hours prior to FACS. SAHA, AR-42 and MS275 were purchased from Selleck (Selleck Chemicals, Houston, Tex.). […] FACS data were analyzed using FlowJo (Tree Star Inc, Ashland, Oreg.). A plasmid expressing HDAC3 was acquired from Addgene (Cambridge, Mass., plasmid 13819) and transfected into a stable cell line carrying the H4 acetyl reporter allele.

The next data set deals with H3K4 trimethylation. The experiment in a line: H3K4 trimethylation (H3K4me3) reporter allele, GFP fluorescence by FACS. In kind it is cell-based. The note with it: FIG. 18F.
Description: as §1
Epigenetic reporter alleles were synthesized (OriGene, Rockville, Md.) using published sequences for component elements (Baird et al. (1999) Proc. Natl. Acad. Sci. 96:11241-6; Souslova et al. (2007) BMC Biotechnol. 7:37). Single nucleotide mutations were created using the QuickChange Lightening kit (Agilent Technologies Inc, Santa Clara, Calif.). […] FACS data were analyzed using FlowJo (Tree Star Inc, Ashland, Oreg.). […]
Epigenetic reporter systems were created that monitor either H4 acetylation or H3K4 trimethylation machinery activity in an effort to determine whether there is an ongoing activity deficiency in cells from Kmt2d^+/βGeo mice (FIG. 18A). Both reporter alleles encode halves of green fluorescent protein separated by a flexible linker region (Baird et al. (1999) Proc. Natl. Acad. Sci. 96: 11241-6) with a histone tail and a histone reader at the N- and C-termini, respectively. […]

Each structure is given as a SMILES string.

Turning to `CC(C)[C@H](C(=O)Nc1ccc(C(=O)NO)cc1)c1ccccc1` [AR-42], in data set [1] (Kmt2d+/βGeo MEFs), the “dose at which Kmt2d+/βGeo MEFs achieve untreated wild-type levels of activity” value came to 5 µM. Moreover, the H3K4 trimethylation activity result in data set [1] (Kmt2d+/βGeo cells (MEFs)) is given as “enhanced”. In addition, the “H3K4me3 indicator activity in MEFs” value in data set [1] (both genotypes (Kmt2d+/+ and Kmt2d+/βGeo)) is “dose-dependent response”. Also, the cell numbers entry with H3K4 trimethylation (higher doses) was “decreased cell numbers at higher doses”. In addition, the “response of the H3K4me3 indicator” value with H3K4 trimethylation (increasing levels of drug) is “dose dependent response”.
